Laboratory results from ChEMBL document CHEMBL1133483, “Enhanced pneumocystis carinii activity of new primaquine analogues” (2000).

Assays:
Format in all cases: functional
Pneumocystis carinii [1] = assay: Efficacy of compound was evaluated in rat infected with Pneumocystis carinii at a dose of 2 mg/Kg administered intraperitoneally
Pneumocystis carinii [2] = assay: Efficacy of compound was evaluated in rat infected with Pneumocystis carinii at a dose of 2 mg/Kg administered orally
Pneumocystis carinii [3] = assay: Efficacy of compound was evaluated in rat infected with Pneumocystis carinii at a dose of 2 mg/Kg administered subcutaneously

Row | SMILES | Infection score (Pneumocystis carinii [1]) | Infection score (Pneumocystis carinii [2]) | Infection score (Pneumocystis carinii [3])
1 | COc1cc(Cc2cnc(N)nc2N)cc(OC)c1OC.Cc1cc(NS(=O)(=O)c2ccc(N)cc2)no1 [CO-TRIMOXAZOLE] | 1.31 |  | 
2 | CCCCCCCOc1ccc(Oc2c(OC)cc(NC(C)CCCN)c3nccc(C)c23)cc1 (stereo unspecified) | 0.71 | 1.25 | 
3 | COc1cc(NC(C)CCCN)c2ncccc2c1 (stereo unspecified) [PRIMAQUINE] |  |  | 4.3
4 | CCCCCCCCCCCCCCCCOc1ccc(Oc2c(OC)cc(NC(C)CCCN)c3nccc(C)c23)cc1 (stereo unspecified) | 4.5 |  | 
5 | CCOc1ccc(Oc2c(OC)cc(NC(C)CCCN)c3nccc(C)c23)cc1 (stereo unspecified) | 0 |  | 
